Reference: US10124004B2, “Pyrido[3,4-d]pyrimidine derivative and pharmaceutically acceptable salt thereof” (Teijin Pharma Limited, priority 2015, dated 2018)

Tests used:
[1] = biological target: T1, CDK4/cyclin D3 (Homo sapiens, UniProt P11802); test: Human CDK4/cyclin D3 inhibitory activity (QS S Assist CDK4/Cyclin D3_FP Kit, IMAP fluorescence polarization); assay type: biochemical; conditions: 50% inhibitory concentration against CDK4/cyclin D3, given as class symbol
T1 construct: purchased Carna Biosciences, Inc. QS S Assist CDK4/Cyclin D3_FP Kit
T1 sequence (P11802 whole entry): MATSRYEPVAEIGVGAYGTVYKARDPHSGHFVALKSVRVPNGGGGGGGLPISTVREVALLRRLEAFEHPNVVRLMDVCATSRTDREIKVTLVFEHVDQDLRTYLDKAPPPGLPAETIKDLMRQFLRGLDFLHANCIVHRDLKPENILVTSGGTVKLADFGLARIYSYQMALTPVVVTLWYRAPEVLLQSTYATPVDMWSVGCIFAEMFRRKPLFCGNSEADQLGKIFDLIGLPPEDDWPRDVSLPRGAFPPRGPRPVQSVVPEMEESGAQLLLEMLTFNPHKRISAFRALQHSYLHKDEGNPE
T1 sequence (P30281 whole entry partner): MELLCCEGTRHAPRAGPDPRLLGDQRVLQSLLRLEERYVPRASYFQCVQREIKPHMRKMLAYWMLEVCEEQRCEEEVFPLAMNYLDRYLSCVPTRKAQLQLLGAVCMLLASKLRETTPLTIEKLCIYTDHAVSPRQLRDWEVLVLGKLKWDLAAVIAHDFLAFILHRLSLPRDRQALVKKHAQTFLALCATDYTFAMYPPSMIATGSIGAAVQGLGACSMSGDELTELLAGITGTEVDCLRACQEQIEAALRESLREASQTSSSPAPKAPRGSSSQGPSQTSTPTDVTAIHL
Procedure, shortened: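 IMAP fluorescence polarization kit: CDK4/cyclin D3 at 12.5-25 ng/well with kit ATP/substrate/metal mix in 20 mM HEPES pH 7.4, 0.01% Tween20, 2 mM DTT, 45 min at room temperature. FP read at 485/535 nm after 30 min binding; IC50 from dose-response fit of percent inhibition versus enzyme and no-enzyme controls.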

[2] = biological target: T2, CDK2/cyclin A2 (Homo sapiens, UniProt P24941); test: Human CDK2/cyclin A2 inhibitory activity (QS S Assist CDK2/Cyclin A2_FP Kit, IMAP fluorescence polarization); assay type: biochemical; conditions: 50% inhibitory concentration against CDK2/cyclin A2, given as class symbol
T2 construct: purchased Carna Biosciences, Inc. QS S Assist CDK2/Cyclin A2_FP Kit
Procedure, shortened: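 Kinase activity read as fluorescence polarization (485/535 nm) after phosphorylated fluorescent substrate binds IMAP reagent (30 min, RT, dark). Enzyme (2.5 ng/well) reacted 60 min at RT with ATP/substrate/metal in HEPES pH 7.4 buffer with Tween 20 and DTT; no-enzyme wells define 0% activity; IC50 by curve fit.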

IC50 [1] [nM] | IC50 [2] [nM] | Structure (SMILES)
10 to 100 | ≥ 100 | CC(C)Nc1nc(C2(C)COC2)cc2cnc(Nc3ccc(N4CCN(CC(=O)O)CC4C(F)(F)F)cn3)nc12 (centres unmarked) [Compound 890]
10 to 100 | ≥ 100 | CO[C@H](C)c1cc2cnc(Nc3ccc(N4CCN(CC(=O)O)CC4C(F)(F)F)cn3)nc2c(NC(C)C)n1 (some centres unmarked) [Compound 891]
10 to 100 | ≥ 100 | CC(C)Nc1nc([C@@H](C)O)cc2cnc(Nc3ccc(N4CCN(CC(=O)O)CC4C(F)(F)F)cn3)nc12 (some centres unmarked) [Compound 892]
10 to 100 | ≥ 100 | CO[C@H](C)c1cc2cnc(Nc3ccc(N4CCCC(C(=O)O)C4)cn3)nc2c(NC(C)C)n1 (some centres unmarked) [Compound 893]
10 to 100 | ≥ 100 | CO[C@H](C)c1cc2cnc(Nc3ccc(N4CCN(CC(=O)O)CC4=O)cn3)nc2c(NC(C)C)n1 [Compound 894]
< 10 | ≥ 100 | CC(C)Nc1nc([C@@H](C)O)cc2cnc(Nc3ccc(N4CCN(C(C)C(=O)O)CC4=O)cn3)nc12 (some centres unmarked) [Compound 895]
< 10 | ≥ 100 | CC(C)Nc1nc([C@@H](C)O)cc2cnc(Nc3ccc(N4CCNC(C(F)(F)F)C4)nn3)nc12 (some centres unmarked) [Compound 896]
10 to 100 | ≥ 100 | CO[C@H](C)c1cc2cnc(Nc3ccc(N4CCN(C(C)C(=O)O)CC4=O)cn3)nc2c(NC(C)C)n1 (some centres unmarked) [Compound 897]
< 10 | ≥ 100 | CC(C)Nc1nc([C@@H](C)O)cc2cnc(Nc3ccc(N4CCn5ccnc5C4)nn3)nc12 [Compound 898]
< 10 | ≥ 100 | CC(C)Nc1nc([C@@H](C)O)cc2cnc(Nc3ccc(N4CCN(CC#N)CC4=O)cn3)nc12 [Compound 899]
< 10 | ≥ 100 | CC(C)Nc1nc([C@@H](C)O)cc2cnc(Nc3ccc(N4CCN(CC(N)=O)CC4=O)cn3)nc12 [Compound 900]
< 10 | ≥ 100 | CC(C)Nc1nc([C@@H](C)O)cc2cnc(Nc3ccc(N4CCN(CC#N)CC4)nn3)nc12 [Compound 901]
< 10 | ≥ 100 | CC(C)Nc1nc([C@@H](C)O)cc2cnc(Nc3ccc(N4CCN(C(C)C#N)CC4)nn3)nc12 (some centres unmarked) [Compound 902]
< 10 | 10 to 100 | C[C@@H](O)c1cc2cnc(Nc3ccc(N4CCNCC4=O)cn3)nc2c(NC2(C)CCCOC2)n1 (some centres unmarked) [Compound 903]
< 10 | ≥ 100 | CC(C)Nc1nc([C@@H](C)O)cc2cnc(Nc3ccc4c(n3)CCN(C(=O)CN(C)C)C4)nc12 [Compound 905]
10 to 100 | ≥ 100 | CO[C@H](C)c1cc2cnc(Nc3ccc(N4CCN(CC#N)CC4)nn3)nc2c(NC(C)C)n1 [Compound 906]
< 10 | ≥ 100 | CO[C@H](C)c1cc2cnc(Nc3ccc(N4CCN(C(C)C#N)CC4)nn3)nc2c(NC(C)C)n1 (some centres unmarked) [Compound 907]
< 10 | ≥ 100 | CO[C@H](C)c1cc2cnc(Nc3ccc(N4CCN(CC(N)=O)CC4)nn3)nc2c(NC(C)C)n1 [Compound 908]
< 10 | ≥ 100 | CC(=O)c1cc2cnc(Nc3ccc(N4CCNCC4)nn3)nc2c(NC(C)(C)C)n1 [Compound 909]
10 to 100 | ≥ 100 | CCCNc1nc(C(C)=O)cc2cnc(Nc3ccc(CN4CCNCC4)cn3)nc12 [Compound 910]
< 10 | ≥ 100 | CCCCNc1nc(C(C)=O)cc2cnc(Nc3ccc(CN4CCNCC4)cn3)nc12 [Compound 911]
< 10 | ≥ 100 | CC(=O)c1cc2cnc(Nc3ccc(CN4CCNCC4)cn3)nc2c(NCC(C)C)n1 [Compound 912]
< 10 | ≥ 100 | CO[C@H](C)c1cc2cnc(Nc3ccc(CN4CCN(CCO)CC4)cn3)nc2c(NC(C)(C)CO)n1 [Compound 913]
< 10 | ≥ 100 | CO[C@H](C)c1cc2cnc(Nc3ccc(CN4CCN(CCO)CC4)cn3)nc2c(N[C@H](C)CO)n1 [Compound 914]
< 10 | ≥ 100 | CO[C@H](C)c1cc2cnc(Nc3ccc(CN4CCN(CCO)CC4)cn3)nc2c(N[C@@H](C)CO)n1 [Compound 915]
